According to patent publication US20090312277A1, “Compositions And Methods For Reversing Or Preventing Resistance Of A Cancer Cell To A Cytotoxic Agent” (priority 2004, published 2009):
Peptide text beside a SMILES is read from it. * marks the point of attachment. Cbz = O=C(OCc1ccccc1)*; CHN2 = [N-]=[N+]=C*; tBu = CC(C)(C)*

Legend:
[1] = system: Drug-sensitive cells SKN-SH; test: Prevention of development of doxorubicin resistance, viable cell count, SKN-SH; type: cell-based, human; conditions: repeated four-day treatments with increasing doxorubicin
From the text: (§1) As discussed above, inhibition of cathepsin L enhanced drug response only in drug-resistant cells. Another aspect of the present invention was to determine whether treatment of drug-sensitive cancer cells with this drug combination prevents them from becoming drug resistant. […] After 4 days in culture, the surviving cells were subjected to the same treatment for an additional four days. The cells were then subjected to two subsequent treatments for four days with 2.5×10^−8 M doxorubicin with or without the cathepsin L inhibitor at 10 μM. The surviving cells were then treated with doxorubicin 5×10^−8 M doxorubicin with or without cathepsin L (10 μM) for four days. At the end of each incubation period, viable cells were counted.

[2] = system: Saos2 wild type; test: MTT cytotoxicity assay, Saos2 wild type cells; type: cell-based; conditions: Homo sapiens, SAOS-2, 96 hours, read-out: IC50 of doxorubicin alone (converted)
Procedure: (§2) Cytotoxic activity of doxorubicin and cysteine protease inhibitors were quantitatively determined by a calorimetric assay utilizing 3-(4,5-dimethyl-2-thiazolyl) 2,5-diphenyl tetrazolium bromide (MTT; Sigma-Aldrich, St. Louis, Mo.). Briefly, cells were seeded at 10^4 cells/well in 96-well plates and maintained in culture for 24 hours at 37° C. in DMEM supplemented with 10% FBS. Drugs were added to designated wells and cells were incubated for 96 hours, following which MTT (10 μL of 5 mg/ml solution) was added to each 100 μl well and incubated for 4 hours at 37° C. The cells were solubilized by incubation with 100 μl of HCl 0.5N in isopropanol for 15 hours at 37° C. The optical density of this solution was measured at 570 nm and the percentage of viable cells estimated by comparison with untreated control cells.
(§3) The effect of cathepsin L inhibitor was tested on drug sensitive and resistant (R) cell lines corresponding to various cancer types, including the human neuroblastoma cell line SKN-SH (ATCC Cat. No. HTB-11), the murine neuroblastoma cell line Neuro2A (ATCC Cat. No. CCL-131), the osteosarcoma cells Saos2 (ATCC Cat. No. HTB-85) and the leukemia cell line HL-60 (ATCC Cat. No. CCL240). The cells were treated with cathepsin L inhibitor with or without doxorubicin as described above. Cell viability was calculated after 96 hours of incubation with the drug combination. […]

[3] = system: breast cancer (MCF-7/doxR); test: cells; conditions: Homo sapiens, MCF7, 192 h, read-out: percentage of viable cells, single agent
Procedure: (§7) The following additional cell lines were tested: breast cancer (MCF-7/doxR) (MCF: ATCC Cat. No. HTB-22) and ovarian cancer (A2780/CR; European collection of cell culture cat# 931112519, Salisbury, UK). Cells were treated with doxorubicin (10^−5M) and/or a cathepsin L inhibitor (25 μM) for eight days. Viable cell number was counted and normalized to 100% of non-treated cells.

[4] = system: Doxorubicin resistant human neuroblastoma cells (SKN-SH/R); test: Tumor growth of SKN-SH/R cells injected into nude mice; type: in vivo; conditions: nude mice, i.p. on day 11, 14, 17; doxorubicin alone 1.5 mg/Kg or iCL alone 30 mg/Kg
Procedure: Doxorubicin resistant human neuroblastoma cells (SKN-SH/R) cells grown into 75 cm^2 flasks were harvested by trypsinization and centrifuged to remove trypsin. The pellet was then reconstituted in culture medium at 10^7 cell/ml. On day one, 100 μl (10^6 cells) were injected to the right flank of nude mice (5 per group) and after the tumor became palpable at day 11, mice were assigned to four groups: 1) controls (treated with the vehicle DMSO), 2) Dox. 1.5 mg/kg (treated with doxorubicin alone 1.5 mg/Kg), 3) iCL 30 mg/Kg (treated with cathepsin L inhibitor alone at 30 mg/Kg), and 4) Dox 1.5 mg/Kg+iCL 30 mg/Kg (treated with the combination of doxorubicin 1.5 mg/Kg and cathepsin L inhibitor 30 mg/Kg). Intraperetoneal injections were given on day 11, day 14, and day 17.

[5] = system: Drug-sensitive cells Saos2; test: Prevention of development of doxorubicin resistance, viable cell count, Saos2; type: cell-based; conditions: repeated four-day treatments with increasing doxorubicin
From the text: as §1

[6] = system: SKN-SH/R cells; test: MTT cytotoxicity assay, doxorubicin-resistant neuroblastoma cells; type: cell-based; conditions: Homo sapiens, SK-N-SH, 96 h, read-out: IC50 (concentration at which 50% of cells remained viable) of the cytotoxic agent alone, SKN-SH/R cells, agent alone (control cells), 96 hours, MTT
Procedure: (§4) Human neuroblastoma SKN-SH cells (ATCC Cat. No. HTB-11) were cultured in Dulbecco's Modified Eagles Medium (DMEM; Gibco, Grand Island, N.Y.) supplemented with 10% fetal bovine serum (FBS; Sigma-Aldrich, St. Louis, Mo.) at 37° C. in a 95% Air/5% CO2 atmosphere. Resistant cells to doxorubicin (SKN-SH/R) were selected by stepwise exposure to drug concentrations ranging from 10^−9 M through 10^−6 M over a time period of three months. The resulting cell line was subjected to treatment with the doxorubicin alone or in combination with: proteosome inhibitor (Lactacystin), cathepsin B inhibitor (L-3-trans-(Propylcarbamoyl)oxirane-2-carbonyl]-L-isoleucyl-L praline), cathespin L inhibitor (Z-Phe-Tyr(t-Bu)-diazomethylketone), cathespin K inhibitor (1,3-Bis(N-CBZ-Leu-NH)-2-propanonel,3 -Di(N-carbonbenzoyloxy-L-leucyl)amino acetone), or cathespin S inhibitor (Z-Phe-Leu-COCHO.H2O), (all available from Calbiochem-Novabiochem, San Diego) at 10 μM each to determine whether they affect cell response to doxorubicin.
(§5) Cytotoxic activity of doxorubicin and cysteine protease inhibitors were quantitatively determined by a calorimetric assay utilizing 3-(4,5-dimethyl-2-thiazolyl) 2,5-diphenyl tetrazolium bromide (MTT; Sigma-Aldrich, St. Louis, Mo.). […] The optical density of this solution was measured at 570 nm and the percentage of viable cells estimated by comparison with untreated control cells. […]

[7] = system: Neuro2A doxorubicin resistant cells; test: MTT cytotoxicity assay, Neuro2A doxorubicin resistant cells; type: cell-based, murine; conditions: Mus musculus, N2a, 96 hours, read-out: IC50 of doxorubicin alone (converted)
Procedure: as §2, §3

[8] = system: HL-60 doxorubicin resistance cells; test: MTT cytotoxicity assay, HL-60 doxorubicin resistant cells; type: cell-based; conditions: Homo sapiens, 96 hours, read-out: IC50 of doxorubicin alone (converted)
Procedure: as §2, §3

[9] = system: HL-60 wild type; test: MTT cytotoxicity assay, HL-60 wild type cells; type: cell-based; conditions: Homo sapiens, 96 hours, read-out: IC50 of doxorubicin alone (converted)
Procedure: as §2, §3

[10] = system: ovarian cancer (A2780/CR); test: cells; conditions: Homo sapiens, A2780, 192 h, read-out: percentage of viable cells, single agent
Procedure: as §7

[11] = system: Neuro2A wild type; test: MTT cytotoxicity assay, Neuro2A wild type cells; type: cell-based, murine; conditions: Mus musculus, N2a, 96 hours, read-out: IC50 of doxorubicin alone (converted)
Procedure: as §2, §3

[12] = system: SKN-SH wild type cells; test: MTT cytotoxicity assay, SKN-SH wild type cells; type: cell-based; conditions: Homo sapiens, SK-N-SH, 96 h, read-out: IC50 of the cytotoxic agent alone
Procedure: as §4, §5

[13] = system: Saos2 doxorubicin resistant; test: MTT cytotoxicity assay, Saos2 doxorubicin resistant cells; type: cell-based; conditions: Homo sapiens, SAOS-2, 96 hours, read-out: IC50 of doxorubicin alone (converted)
Procedure: as §2, §3

[14] = system: drug resistant osteosarcoma cells (Saos2-R); test: Cell count of drug resistant osteosarcoma cells after siRNA or inhibitor and doxorubicin; type: cell-based; conditions: doxorubicin 10^−5 M for 48 hours, untreated 1.6e+6 AU
From the text: The human cathepsin L siRNA was designed in our laboratory by studying a cDNA sequence of the human cathepsin L gene (SEQ ID NO: 2). We selected a segment defined by nucleotide numbers 91-111, sent that sequence to a contract laboratory (Dharmacon, Lafayette, Colo.), which synthesized an siRNA molecule based on the aforementioned segment. The segment of the human cathepsin L cDNA we used was: […] (91-111) (SEQ ID NO: 2). On the day before transfection, 3×10^5 drug resistant osteosarcoma cells (Saos2-R) were seeded in 6-well plates and grown in 2.5 ml of DMEM supplemented with 10% FBS. After 24 hours in culture, 25 μl of 20 μM stock solution of siRNA duplexes were transfected into cells with GeneSilencer™ SiRNA Transfection Reagent Kit (Gene Therapy Systems, Inc., San Diego, Calif.). Briefly, adherent cells were transfected in 6 well plates. Cells were about 70% confluent. In one tube, 5 μl of GeneSilencer™ was mixed with 25 μl of serum free medium. In a second tube, 25 μl of siRNA diluent was mixed with […] of serum free medium and 20 μl of siRNA (100 nM). After incubation of tubes 1 and 2, at room temperature for 5 min, they were mixed together into tube 3 and incubated for an additional 5 min. The content of tube 3 was added to the cells in the 6 well plates and incubated for 2 days before the addition of the drug. After 48 hours of incubation, doxorubicin (10^−5 M) was added and maintained in culture for an additional 48 hours before analysis. The cells were counted and protein lysates were used to detect cathepsin L expression by Western blot as described above.

[15] = system: p21/WAF1; test: Western blot of p21/WAF1 in SKN-SH/R cells; type: cell-based, human; conditions: 24 hours
Procedure: (§6) Doxorubicin resistant human neuroblastoma cells (SKN-SH/R) were subjected, in 25 cm^2 flasks, to treatment with a cathepsin L inhibitor and doxorubicin each, alone or in combination. After 24 hours of incubation, culture medium was removed and the cells washed twice with PBS. Proteins were solubilized with 150 μl of lysis buffer (50 mM HEPES pH 7.4, 150 mM NaCl, 100 mM NaF, 1 mM MgCl2, 1.5 mM EGTA, 10% glycerol, 1% Triton X100, 1 μg/ml leupeptin, 1 mM phenyl-methyl-sulfonyl-fluoride). Equal quantities of protein were separated by electrophoresis on a 12% SDS-PAGE gel and transferred to Immobilon-P membranes (Millipore, Bedford, Mass.). P21/WAF1 and cleaved (active) caspase-3 were detected by reaction with specific primary antibodies (P21/WAF1 primary antibody from Santa Cruz Biotechnologies, Santa Cruz, Calif.; and caspase-3 primary antibody from Cell Signaling Technology, Inc., Beverly, Mass.) after one hour of incubation at room temperature in PBS (pH7.4). This was followed by incubation of the membrane for 1 hour at room temperature with presence of secondary anti-Rabbit antibody linked to horseradish peroxidase (Bio-Rad Laboratories, Hercules, Calif.) (1/1000 in PBS). Reactive bands were detected by chemiluminescence.

[16] = target: T1, Purified cathepsin L (Homo sapiens, UniProt P07711); test: Cathepsin L activity, fluorogenic substrate (CV-Cathepsin L Detection Kit); type: biochemical; conditions: inhibitor 10 μM, 200 ng cathepsin L; positive control 4e+5 AU, negative control 0.75e+5 AU
T1 construct: purchased Biomol, Plymouth Meeting, Pa
T1 sequence (P07711 114-333, species assumed): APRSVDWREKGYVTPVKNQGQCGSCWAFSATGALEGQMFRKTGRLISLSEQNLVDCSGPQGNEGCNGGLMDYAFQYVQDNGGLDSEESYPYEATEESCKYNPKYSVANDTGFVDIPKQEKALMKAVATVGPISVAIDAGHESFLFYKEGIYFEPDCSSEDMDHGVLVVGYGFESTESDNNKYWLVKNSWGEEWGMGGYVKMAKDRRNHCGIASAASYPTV
Procedure: Cathepsin L activity was measured using a commercially available kit according to the manufacturer's procedure (CV-Cathepsin L Detection Kit; Biomol, Plymouth Meeting, Pa.). Purified cathepsin L (Biomol, Plymouth Meeting, Pa.) (200 ng) was incubated with each inhibitor (10 μM) in a 96 well plate for 15 min at room temperature in 100 μl of reaction buffer (100 mM sodium acetate pH 5, 1 mM EDTA (ethylenediaminetetraacetic acid), and 4 mM dithiothreitol). The protease inhibitors tested were: lactacystin and inhibitors of cathepsin L, B, S, and K. 100 μl of a fluorogenic substrate (CV-Cathepsin L Detection Kit; Biomol, Plymouth Meeting, Pa.) were added and incubated for an additional 30 min at room temperature. Fluorescence was measured in a plate reader (Victor Multilabel Counter, Perkin Elmer) at 380 nm excitation and […] emission wavelengths.

[17] = system: caspase-3; test: Western blot of cleaved (active) caspase-3 in SKN-SH/R cells; type: cell-based, human; conditions: cathepsin L inhibitor 10 μM + doxorubicin 10^−6M, 24 hours
Procedure: as §6

Row | SMILES | change in percentage of viable cells over successive treatments, doxorubicin alone [1] | IC50 [2] | viability at 25 µM [3] | average tumor volume on day 27, single agent [4] | effect on percentage of viable cells over successive treatments, doxorubicin alone [5] | IC50 [6] | IC50 [7] | IC50 [8] | IC50 [9] | viability at 25 µM [10] | IC50 [11] | IC50 [12] | IC50 [13] | cell number, in combination with doxorubicin [14] | expression of p21/WAF1 (Western blot), combination with doxorubicin 10^−6M ([15]; cathepsin L inhibitor 10 μM + doxorubicin 10^−6M) | expression of p21/WAF1 (Western blot), combination with doxorubicin 10^−7M ([15]; cathepsin L inhibitor 10 μM + doxorubicin 10^−7M) | cathepsin L activity (arbitrary units) in presence of inhibitor [16] | caspase-3 activation (Western blot), combination with doxorubicin 10^−6M [17]
1 | COc1cccc2c1C(=O)c1c(O)c3c(c(O)c1C2=O)C[C@@](O)(C(=O)CO)C[C@@H]3O[C@H]1C[C@H](N)[C@H](O)[C@H](C)O1 [doxorubicin] | no change | ~100 nM | ~50% | approximately 1600 mm^3 | no affect | ~178 nM | ~3160 nM | ~31600 nM | ~56.2 nM | ~70% | ~31.6 nM | ~1.78 nM | ~5620 nM | – | – | – | – | –
2 | CC(C)(C)Oc1ccc(C[C@H](NC(=O)[C@H](Cc2ccccc2)NC(=O)OCc2ccccc2)C(=O)C=[N+]=[N-])cc1 [cathepsin L inhibitor, Z-Phe-Tyr(t-Bu)-diazomethylketone] (Cbz-Phe-Tyr(tBu)-CHN2) | – | – | – | – | – | – | – | – | – | – | – | – | – | 2.0e+5 AU | decreased expression of p21/WAF1 | enhanced expression of p21/WAF1 | 1e+5 AU | increased caspase-3 activation
